Measurements as given in PMC3686309 (ACS medicinal chemistry letters, 2013).

Experiments:
[1] = Cytotoxicity against WI-38 fibroblast cells; format: cell-based, human; conditions: human, WI-38 fibroblast cells
WI-38 fibroblast cells = assay: Cytotoxicity against WI-38 fibroblast cells; format: cell-based, human
WT IDH1 = WT IDH1 (Homo sapiens, UniProt O75874); assay: WT IDH1 enzyme inhibition; format: biochemical; conditions: at 100 μM
Chain of WT IDH1 (O75874 whole entry): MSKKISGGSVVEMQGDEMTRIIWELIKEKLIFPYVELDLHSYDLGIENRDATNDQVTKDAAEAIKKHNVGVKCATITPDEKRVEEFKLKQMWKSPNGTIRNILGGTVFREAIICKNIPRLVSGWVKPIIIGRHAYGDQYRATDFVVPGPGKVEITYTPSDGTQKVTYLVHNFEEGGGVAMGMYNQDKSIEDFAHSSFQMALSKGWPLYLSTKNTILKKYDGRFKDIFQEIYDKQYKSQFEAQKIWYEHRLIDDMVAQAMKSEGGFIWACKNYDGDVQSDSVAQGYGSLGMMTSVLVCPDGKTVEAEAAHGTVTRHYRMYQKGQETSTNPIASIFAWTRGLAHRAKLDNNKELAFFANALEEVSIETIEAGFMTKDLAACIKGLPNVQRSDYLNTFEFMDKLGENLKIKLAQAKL

Cc1cc(Cc2ccccc2)n(O)c(=O)c1 [Compound 2]
EC50 [1]: > 50 µM
cytotoxicity against human cells (in words) (WI-38 fibroblast cells): do not have cytotoxicity

Cc1cc(Cc2ccc(O)cc2)n(O)c(=O)c1 [Compound 3]
EC50 [1]: > 50 µM
cytotoxicity against human cells (in words) (WI-38 fibroblast cells): do not have cytotoxicity

O=c1cccc(Cc2ccccc2)n1O [Compound 4]
EC50 [1]: > 50 µM

CC(C)c1cc(Cc2ccccc2)n(O)c(=O)c1 [Compound 5]
EC50 [1]: > 50 µM

O=c1ccc(Cc2ccccc2)cn1O [Compound 1]
activity against WT IDH1 (WT IDH1): no activity
